Nine molecules from PMC4899947 (Bioorganic & medicinal chemistry letters, 2016) can be followed below.

Data set [1] deals with human mGlu4 (Homo sapiens, UniProt Q14833). Briefly: Calcium mobilization mGlu4 PAM assay. The data set is classed as cell-based.
In data set [2] the test system is haloperidol-induced catalepsy. The data set can be described thus: Reversal of haloperidol-induced catalepsy. The data set is classed as in vivo, rat. The settings on record: rats; for reversal of haloperidol-induced catalepsy (in words): p.o.
Data set [3] deals with other mGlu receptors. The data set can be described thus: Selectivity versus the other mGlu receptors.
Data set [4] is described as follows: Plasma and brain samples from the oral HIC study. The data set is classed as in vivo, rat. The settings on record: rats.

human mGlu4, sequence (Q14833 33-912): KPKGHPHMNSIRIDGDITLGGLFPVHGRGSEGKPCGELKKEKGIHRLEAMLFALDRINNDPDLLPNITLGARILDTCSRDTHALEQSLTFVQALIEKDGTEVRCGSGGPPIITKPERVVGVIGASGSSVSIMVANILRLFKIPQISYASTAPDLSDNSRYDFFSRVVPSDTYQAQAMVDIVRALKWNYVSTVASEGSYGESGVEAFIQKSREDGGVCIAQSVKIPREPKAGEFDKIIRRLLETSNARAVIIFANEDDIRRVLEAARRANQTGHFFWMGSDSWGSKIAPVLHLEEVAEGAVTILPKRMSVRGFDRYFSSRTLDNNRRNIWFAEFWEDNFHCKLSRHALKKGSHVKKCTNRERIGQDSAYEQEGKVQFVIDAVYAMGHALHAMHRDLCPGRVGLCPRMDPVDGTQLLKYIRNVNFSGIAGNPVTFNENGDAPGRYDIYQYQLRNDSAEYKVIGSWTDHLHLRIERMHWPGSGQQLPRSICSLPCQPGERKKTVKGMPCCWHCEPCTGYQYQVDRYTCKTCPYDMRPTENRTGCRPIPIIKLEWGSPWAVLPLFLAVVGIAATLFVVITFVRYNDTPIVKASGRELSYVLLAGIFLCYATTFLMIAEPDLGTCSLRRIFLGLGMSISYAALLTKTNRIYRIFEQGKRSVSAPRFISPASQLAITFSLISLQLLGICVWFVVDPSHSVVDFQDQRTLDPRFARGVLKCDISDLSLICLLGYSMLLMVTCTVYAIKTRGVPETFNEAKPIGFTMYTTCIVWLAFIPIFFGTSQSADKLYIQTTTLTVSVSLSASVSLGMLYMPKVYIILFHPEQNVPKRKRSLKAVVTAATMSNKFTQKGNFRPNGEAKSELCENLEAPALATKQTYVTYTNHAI

As for `Nc1cccnc1C(=O)Nc1cccc(Cl)c1` [Compound 7], the “fold less potent than 6” value in data set [1] (mGlu4 PAM EC50 relative to 6) is on record as ~ 7 fold.

As for `CCc1cnc(Oc2ccc(NC(=O)c3ccncc3N)cc2Cl)nc1` [Compound 19], in data set [1], the “mGlu4 PAM activity (in words)” value is “devoid of mGlu4 PAM activity”. `Nc1cccnc1C(=O)Nc1ccc(N2C(=O)c3ccccc3C2=O)c(Cl)c1` [Compound 17a, N-(3-chloro-4-(1,3-dioxoisoindolin-2-yl)phenyl)-3-aminopicolinamide]: the “reversal of haloperidol-induced catalepsy at 1 mg/kg p.o.” value in data set [2] (1 mg/kg p.o., haloperidol 1.5 mg/kg, side-by-side with 6) is on record as “as efficacious as 6”. Besides, in data set [2] (haloperidol 1.5 mg/kg), the “reversal of haloperidol-induced catalepsy (in words)” value is listed as “robust efficacy”. Further, the “mGlu4 PAM activity (in words)” value in data set [1] is on record as “good PAM activity”. In data set [3], the “selectivity versus the other mGlu receptors” value was “excellent selectivity”. In data set [4], the “total brain level, fold above the rat mGlu4 PAM EC50” value was “greater than 2 fold”. Regarding `COc1ccc2c(c1)C(=O)N(c1ccc(NC(=O)c3ncccc3N)cc1Cl)C2` [Compound 17h], the “mGlu4 PAM activity (in words)” value in data set [1] is “good PAM activity”. On to `Nc1cccnc1C(=O)Nc1ccc(N2Cc3ccccc3C2=O)c(Cl)c1` [Compound 17e], for which, in data set [1], the “mGlu4 PAM activity (in words)” value is given as “good PAM activity”.

For the molecule `CCc1cnc(Oc2ccc(NC(=O)c3ncccc3N)cc2Cl)nc1` [Compound 17t], in data set [2] (3 mg/kg p.o., comparable to 6 at 10 mg/kg p.o.), the “reversal of haloperidol-induced catalepsy at 3 mg/kg p.o.” value was “robust reversal”. Also, the “reversal of haloperidol-induced catalepsy (in words)” value in data set [2] (haloperidol 1.5 mg/kg) is “more efficacious than 6”. Moreover, the “selectivity versus the other mGlu receptors” value in data set [3] is on record as “excellent selectivity”. Moreover, the “total brain level, fold above the rat mGlu4 PAM EC50” value in data set [4] was “greater than 3.5 fold”. In the case of `Nc1cccnc1C(=O)Nc1ccc(N2Cc3ccc(Cl)cc3C2=O)c(Cl)c1` [Compound 17g], the “mGlu4 PAM activity (in words)” value in data set [1] is listed as “devoid of PAM activity”.

Take `CCc1cnc(Oc2ccc(NC(=O)c3nccnc3N)cc2Cl)nc1` [Compound 20]: the “fold loss of potency relative to 17t” value in data set [1] (mGlu4 PAM EC50 relative to 17t) is listed as ~ 5 fold. Take `Cc1cccc2c1C(=O)N(c1ccc(NC(=O)c3ncccc3N)cc1Cl)C2=O` [Compound 17d]: the “mGlu4 PAM activity (in words)” value in data set [1] is given as “good PAM activity”.
